This experiment deals with E. faecium A6345 Line-R. In words: MIC, NCCLS broth microdilution. It is filed as cell-based. How it is done:
The efficacy of ramoplanin was tested against recently isolated VRE that are resistant to linezolid and quinupristin/dalfopristin. The culture media containing ramoplanin was supplemented with 0.02% bovine serum albumin (BSA) to prevent ramoplanin binding to the plastic. MIC values were determined in both cation-adjusted Mueller-Hinton broth (CAMHB) and trypticase soy broth (TSB) by the National Committee for Clinical Laboratory Standards (NCCLS) broth microdilution method. Macromolecular biosynthesis experiments were done by following the incorporation of carbon-14-labeled N-acetylglucosamine, acetic acid, amino acids, uridine, and thymidine into peptidoglycan, fatty acid, protein, RNA and DNA, respectively.
On the technique in general: In broth dilution the organism is exposed to a series of concentrations in liquid medium.

Where [1] appears, read: E. faecium A6345 Line-R. as printed, second row of Table 3.
The mark [2] stands for this setting: E. faecium A6345 Line-R., first row of Table 3.

For the molecule `CO[C@H]1/C=C/O[C@@]2(C)Oc3c(C)c(O)c4c(O)c(c(/C=N/N5CCN(C)CC5)c(O)c4c3C2=O)NC(=O)/C(C)=C\C=C\[C@H](C)[C@H](O)[C@@H](C)[C@@H](O)[C@@H](C)[C@H](OC(C)=O)[C@@H]1C` [Rifampin], the “reference MIC for strains used for killing curve” value was found to be 0.03 µg/mL under setting [1] and 16 µg/mL under setting [2].

As to `O=C(N[C@H](CO)[C@H](O)c1ccc([N+](=O)[O-])cc1)C(Cl)Cl` [Chloramphenicol], the “reference MIC for strains used for killing curve” value is 16 µg/mL under setting [1] and 16 µg/mL under setting [2].

The values are drawn from patent US20040127403A1, “Methods for treating and preventing Gram-positive bacteremias” (priority 2002, published 2004).
